According to PMC7206119, “RIP1 inhibition blocks inflammatory diseases but not tumor growth or metastases” (Cell Death and Differentiation, 2019):

What was measured:
Assay in all cases: biochemical
Set-up in all cases: DiscoverX kinase panel, active-site competition binding (KINOMEscan type), percent of control at one concentration
Details in all cases: competition binding, percent of control
PIKFYVE = PIKFYVE (Homo sapiens, UniProt Q9Y2I7)
Text: (§1) To investigate the potential therapeutic benefit of inhibiting RIP1, we developed GNE684 or (S)-N-((S)-7-methoxy-1-methyl-2-oxo-2,3,4,5-tetrahydro-1H-pyrido[3,4-b]azepin-3-yl)-5-phenyl-6,7-dihydro-5H-pyrrolo[1,2-b][1,2,4]triazole-2-carboxamide with cross-species potency against RIP1, exquisite kinase selectivity, and favorable pharmacological properties (Fig. 1a–h, S1, Tables S1 and S2, SI file 1). […] (Fig. 1b, S1, and Table S1). […] GNE684 inhibited human RIP1 potently in vitro, and mouse and rat RIP1 with slightly less potency (Fig. 1d). Accordingly, it inhibited TNF-induced necroptosis in human HT-29, mouse L929, or rat H9c2 cells (Fig. 1e). The cellular potency of GNE684 was confirmed in a human whole blood assay using TBZ (TNF, IAP antagonist BV6, and pan-caspase inhibitor zVAD) or LZ (LPS plus zVAD) to trigger necroptosis and the release of IL-1α and IL-1β (Fig. 1f).

GRK1 = GRK1 (Homo sapiens, UniProt Q15835)
Text: as §1

LOK = biological target: T1, LOK (Homo sapiens, UniProt O94804)
T1 construct: gene STK10
Text: as §1

CSNK1G3 = CSNK1G3 (Homo sapiens, UniProt Q9Y6M4)
Text: as §1

[1] = biological target: T2, ABL1(F317L)-nonphosphorylated (Homo sapiens, UniProt P00519, F317L)
T2 construct: nonphosphorylated
Text: as §1

PHKG2 = PHKG2 (Homo sapiens, UniProt P15735)
Text: as §1

[2] = biological target: T3, RSK2(Kin.Dom.1-N-terminal) (Homo sapiens, UniProt P51812)
T3 construct: gene RPS6KA3; Kin.Dom.1-N-terminal
Text: as §1

PIK4CB = biological target: T4, PIK4CB (Homo sapiens, UniProt Q9UBF8)
T4 construct: gene PI4KB
Text: as §1

PDGFRB = PDGFRB (Homo sapiens, UniProt P09619)
Text: as §1

NEK3 = NEK3 (Homo sapiens, UniProt P51956)
Text: as §1

RET = RET (Homo sapiens, UniProt P07949)
Text: as §1

STK35 = STK35 (Homo sapiens, UniProt Q8TDR2)
Text: as §1

SGK3 = SGK3 (Homo sapiens, UniProt Q96BR1)
Text: as §1

CSF1R = CSF1R (Homo sapiens, UniProt P07333)
Text: as §1

ERBB2 = ERBB2 (Homo sapiens, UniProt P04626)
Text: as §1

WNK1 = WNK1 (Homo sapiens, UniProt Q9H4A3)
Text: as §1

FGFR3 = FGFR3 (Homo sapiens, UniProt P22607)
Text: as §1

EIF2AK1 = EIF2AK1 (Homo sapiens, UniProt Q9BQI3)
Text: as §1

FRK = FRK (Homo sapiens, UniProt P42685)
Text: as §1

ALK = ALK (Homo sapiens, UniProt Q9UM73)
Text: as §1

MST1 = biological target: T5, MST1 (Homo sapiens, UniProt Q13043)
T5 construct: gene STK4
Text: as §1

Sequence of PDGFRB (P09619 whole entry): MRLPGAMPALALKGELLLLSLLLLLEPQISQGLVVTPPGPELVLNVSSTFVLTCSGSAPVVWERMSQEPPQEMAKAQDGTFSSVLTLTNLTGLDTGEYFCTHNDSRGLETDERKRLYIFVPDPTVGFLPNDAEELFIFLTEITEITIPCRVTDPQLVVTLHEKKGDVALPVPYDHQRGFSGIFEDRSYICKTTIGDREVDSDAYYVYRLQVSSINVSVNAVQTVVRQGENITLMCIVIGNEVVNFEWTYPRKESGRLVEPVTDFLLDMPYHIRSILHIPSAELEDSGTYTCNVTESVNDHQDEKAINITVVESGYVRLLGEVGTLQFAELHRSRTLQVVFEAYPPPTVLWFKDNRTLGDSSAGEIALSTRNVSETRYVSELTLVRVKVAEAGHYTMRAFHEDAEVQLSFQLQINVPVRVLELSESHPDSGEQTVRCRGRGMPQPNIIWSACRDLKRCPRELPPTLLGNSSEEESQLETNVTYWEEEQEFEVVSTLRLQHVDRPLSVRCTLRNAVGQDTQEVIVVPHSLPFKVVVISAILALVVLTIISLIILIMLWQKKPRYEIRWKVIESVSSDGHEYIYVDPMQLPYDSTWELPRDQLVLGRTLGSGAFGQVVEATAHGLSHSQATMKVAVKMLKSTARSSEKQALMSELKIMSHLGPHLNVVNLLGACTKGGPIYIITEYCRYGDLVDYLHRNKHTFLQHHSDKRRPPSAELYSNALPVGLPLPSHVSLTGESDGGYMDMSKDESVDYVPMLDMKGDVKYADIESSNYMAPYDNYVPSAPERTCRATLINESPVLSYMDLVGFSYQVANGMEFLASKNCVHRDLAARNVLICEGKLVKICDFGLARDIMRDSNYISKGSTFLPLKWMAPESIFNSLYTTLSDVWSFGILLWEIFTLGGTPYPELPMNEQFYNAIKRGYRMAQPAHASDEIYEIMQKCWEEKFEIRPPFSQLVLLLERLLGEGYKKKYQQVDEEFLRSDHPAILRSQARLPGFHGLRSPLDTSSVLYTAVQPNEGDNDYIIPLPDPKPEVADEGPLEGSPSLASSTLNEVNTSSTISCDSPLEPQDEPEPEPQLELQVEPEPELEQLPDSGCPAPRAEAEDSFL
Sequence of GRK1 (Q15835 whole entry): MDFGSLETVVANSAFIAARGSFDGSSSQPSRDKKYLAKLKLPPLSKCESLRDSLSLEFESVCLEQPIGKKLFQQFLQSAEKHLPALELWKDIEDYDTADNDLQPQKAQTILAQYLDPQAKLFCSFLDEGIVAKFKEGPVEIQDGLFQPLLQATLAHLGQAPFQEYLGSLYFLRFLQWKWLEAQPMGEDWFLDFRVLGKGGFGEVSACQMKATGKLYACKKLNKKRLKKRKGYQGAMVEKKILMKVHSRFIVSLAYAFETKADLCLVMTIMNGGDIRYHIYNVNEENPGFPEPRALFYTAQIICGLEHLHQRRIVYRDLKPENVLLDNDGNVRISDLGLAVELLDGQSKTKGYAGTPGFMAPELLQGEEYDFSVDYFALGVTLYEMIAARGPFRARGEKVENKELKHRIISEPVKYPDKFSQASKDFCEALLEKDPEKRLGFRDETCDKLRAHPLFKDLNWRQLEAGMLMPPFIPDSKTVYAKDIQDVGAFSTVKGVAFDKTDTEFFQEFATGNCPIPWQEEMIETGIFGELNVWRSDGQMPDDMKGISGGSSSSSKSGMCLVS
T5 sequence (Q13043 whole entry): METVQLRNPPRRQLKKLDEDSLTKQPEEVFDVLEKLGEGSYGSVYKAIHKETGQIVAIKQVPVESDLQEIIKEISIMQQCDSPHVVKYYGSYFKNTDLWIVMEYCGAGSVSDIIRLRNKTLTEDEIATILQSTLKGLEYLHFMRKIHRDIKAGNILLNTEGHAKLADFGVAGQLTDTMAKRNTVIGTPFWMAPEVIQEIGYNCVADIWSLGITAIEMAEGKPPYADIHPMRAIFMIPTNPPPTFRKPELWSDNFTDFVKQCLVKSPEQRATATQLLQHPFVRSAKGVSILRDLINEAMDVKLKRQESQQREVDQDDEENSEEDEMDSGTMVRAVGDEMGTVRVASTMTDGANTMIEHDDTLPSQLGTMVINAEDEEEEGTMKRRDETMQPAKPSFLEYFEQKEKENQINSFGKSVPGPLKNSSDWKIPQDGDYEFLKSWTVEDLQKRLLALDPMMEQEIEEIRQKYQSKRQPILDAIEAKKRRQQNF
Sequence of PHKG2 (P15735 whole entry): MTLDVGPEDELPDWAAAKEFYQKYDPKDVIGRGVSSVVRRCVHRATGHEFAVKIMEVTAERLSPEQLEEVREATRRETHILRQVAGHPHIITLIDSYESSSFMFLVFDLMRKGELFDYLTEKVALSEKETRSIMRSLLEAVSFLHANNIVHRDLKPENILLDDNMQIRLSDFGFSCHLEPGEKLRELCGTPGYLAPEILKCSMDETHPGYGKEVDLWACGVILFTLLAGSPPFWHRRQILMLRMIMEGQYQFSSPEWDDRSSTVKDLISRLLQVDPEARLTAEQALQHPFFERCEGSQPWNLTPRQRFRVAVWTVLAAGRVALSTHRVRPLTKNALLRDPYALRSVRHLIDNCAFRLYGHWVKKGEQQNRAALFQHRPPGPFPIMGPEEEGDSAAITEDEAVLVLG
Sequence of STK35 (Q8TDR2 whole entry): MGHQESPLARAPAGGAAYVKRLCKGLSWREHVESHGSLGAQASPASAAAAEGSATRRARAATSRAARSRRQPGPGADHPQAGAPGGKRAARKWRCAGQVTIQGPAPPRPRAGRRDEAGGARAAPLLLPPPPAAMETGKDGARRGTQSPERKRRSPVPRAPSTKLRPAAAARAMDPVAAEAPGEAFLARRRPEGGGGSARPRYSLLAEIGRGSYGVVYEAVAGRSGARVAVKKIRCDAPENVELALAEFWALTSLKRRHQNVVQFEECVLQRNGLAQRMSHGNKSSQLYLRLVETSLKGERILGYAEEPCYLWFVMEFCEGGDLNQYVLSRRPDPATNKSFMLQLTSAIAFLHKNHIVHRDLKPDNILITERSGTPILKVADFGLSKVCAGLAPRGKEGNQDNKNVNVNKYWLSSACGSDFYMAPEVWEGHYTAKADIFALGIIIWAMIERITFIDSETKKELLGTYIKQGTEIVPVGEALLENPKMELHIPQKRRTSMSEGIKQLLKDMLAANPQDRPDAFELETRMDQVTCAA
Sequence of SGK3 (Q96BR1 whole entry): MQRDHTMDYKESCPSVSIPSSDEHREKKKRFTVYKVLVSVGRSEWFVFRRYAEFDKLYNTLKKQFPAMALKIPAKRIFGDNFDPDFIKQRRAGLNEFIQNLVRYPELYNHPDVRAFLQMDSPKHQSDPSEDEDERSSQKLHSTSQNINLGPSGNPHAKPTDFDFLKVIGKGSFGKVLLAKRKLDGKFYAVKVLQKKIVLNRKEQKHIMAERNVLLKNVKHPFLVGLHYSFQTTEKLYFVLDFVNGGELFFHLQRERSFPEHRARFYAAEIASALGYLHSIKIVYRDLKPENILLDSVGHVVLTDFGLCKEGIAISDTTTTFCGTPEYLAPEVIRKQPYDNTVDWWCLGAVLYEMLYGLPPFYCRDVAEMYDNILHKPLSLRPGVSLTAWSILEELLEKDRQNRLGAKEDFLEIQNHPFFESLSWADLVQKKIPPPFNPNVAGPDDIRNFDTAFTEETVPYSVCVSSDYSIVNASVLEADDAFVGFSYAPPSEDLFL
Sequence of RET (P07949 whole entry): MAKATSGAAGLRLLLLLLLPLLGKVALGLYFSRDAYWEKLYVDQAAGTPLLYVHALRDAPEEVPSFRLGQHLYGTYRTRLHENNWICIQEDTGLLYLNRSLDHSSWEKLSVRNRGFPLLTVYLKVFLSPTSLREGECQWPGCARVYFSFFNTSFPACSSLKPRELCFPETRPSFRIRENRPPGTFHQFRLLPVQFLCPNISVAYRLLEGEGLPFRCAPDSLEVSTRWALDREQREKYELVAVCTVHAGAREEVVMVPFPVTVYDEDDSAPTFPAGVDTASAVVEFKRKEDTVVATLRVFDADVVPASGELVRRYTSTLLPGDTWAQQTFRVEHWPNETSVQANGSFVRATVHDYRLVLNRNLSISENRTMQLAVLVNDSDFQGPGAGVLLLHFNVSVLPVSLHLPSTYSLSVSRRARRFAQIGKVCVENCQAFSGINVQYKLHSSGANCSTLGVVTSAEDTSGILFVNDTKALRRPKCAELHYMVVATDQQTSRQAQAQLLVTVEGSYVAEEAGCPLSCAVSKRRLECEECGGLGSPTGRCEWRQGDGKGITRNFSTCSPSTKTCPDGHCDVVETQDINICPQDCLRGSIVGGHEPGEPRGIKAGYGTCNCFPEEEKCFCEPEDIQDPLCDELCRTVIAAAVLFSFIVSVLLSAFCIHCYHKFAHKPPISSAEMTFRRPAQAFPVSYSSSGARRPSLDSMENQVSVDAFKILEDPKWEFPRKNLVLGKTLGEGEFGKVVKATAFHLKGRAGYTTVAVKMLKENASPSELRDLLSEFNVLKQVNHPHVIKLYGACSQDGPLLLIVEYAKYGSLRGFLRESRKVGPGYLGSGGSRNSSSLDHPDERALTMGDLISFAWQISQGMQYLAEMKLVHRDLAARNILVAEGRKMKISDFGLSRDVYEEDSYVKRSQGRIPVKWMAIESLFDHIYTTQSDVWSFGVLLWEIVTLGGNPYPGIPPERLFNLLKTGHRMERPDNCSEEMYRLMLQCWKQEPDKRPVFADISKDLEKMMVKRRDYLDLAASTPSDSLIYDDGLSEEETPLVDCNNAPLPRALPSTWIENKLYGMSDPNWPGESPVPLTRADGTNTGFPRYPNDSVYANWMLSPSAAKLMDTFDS

In the case of `COc1cc2c(cn1)N(C)C(=O)[C@@H](NC(=O)c1nc3n(n1)[C@H](c1ccccc1)CC3)CC2` [GNE684, (S)-N-((S)-7-methoxy-1-methyl-2-oxo-2,3,4,5-tetrahydro-1H-pyrido[3,4-b]azepin-3-yl)-5-phenyl-6,7-dihydro-5H-pyrrolo[1,2-b][1,2,4]triazole-2-carboxamide], the remaining binding at 10 µM (PIKFYVE) is reported as 100%, the remaining binding at 10 µM (GRK1) is reported as 67% and the remaining binding at 10 µM (LOK) is reported as 82%. For the same molecule, the remaining binding at 10 µM (CSNK1G3) was 95%, the remaining binding at 10 µM [1] was 79% and the remaining binding at 10 µM (PHKG2) was 75%. The remaining binding at 10 µM [2] was 65%, the remaining binding at 10 µM (PIK4CB) was 98% and the remaining binding at 10 µM (PDGFRB) was 94%. For the same molecule, the remaining binding at 10 µM (NEK3) was 94%, the remaining binding at 10 µM (RET) was 98% and the remaining binding at 10 µM (STK35) was 100%. It also gave a remaining binding at 10 µM (SGK3) of 93%, a remaining binding at 10 µM (CSF1R) of 100% and a remaining binding at 10 µM (ERBB2) of 76%. It also gave a remaining binding at 10 µM (WNK1) of 100%, a remaining binding at 10 µM (FGFR3) of 100% and a remaining binding at 10 µM (EIF2AK1) of 100%. It also gave a remaining binding at 10 µM (FRK) of 100%, a remaining binding at 10 µM (ALK) of 81% and a remaining binding at 10 µM (MST1) of 85%.
